Measurements as given in PubChem BioAssay (NCI).
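Growth conditions: 96-well plates. Treatment: test compound, 48 hours, 5 concentrations. Analysis: linear interpolation between bracketing concentrations; unreached endpoints set to highest concentration. TGI marks complete inhibition of growth.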

Assays:
Experiment in all cases: growth of human tumour cells (NCI), 48 h
786-0 renal = system: 786-0 renal
ACHN renal = system: ACHN renal
EKVX NSCLC = system: EKVX NSCLC
HCC-2998 colon = system: HCC-2998 colon
HOP-62 NSCLC = system: HOP-62 NSCLC
HOP-92 NSCLC = system: HOP-92 NSCLC
HS 578T breast = system: HS 578T breast
KM12 colon = system: KM12 colon
MCF7 breast = system: MCF7 breast
MDA-MB-231 breast = system: MDA-MB-231 breast
NCI-H522 lung = system: NCI-H522 lung
OVCAR-3 ovarian = system: OVCAR-3 ovarian
OVCAR-8 ovarian = system: OVCAR-8 ovarian
SF-295 CNS = system: SF-295 CNS
SF-539 CNS = system: SF-539 CNS
SK-MEL-2 melanoma = system: SK-MEL-2 melanoma
SK-OV-3 ovarian = system: SK-OV-3 ovarian
SN12C renal = system: SN12C renal
SW-620 colon = system: SW-620 colon
UACC-257 melanoma = system: UACC-257 melanoma

Row | SMILES | TGI (786-0 renal) | TGI (ACHN renal) | TGI (EKVX NSCLC) | TGI (HCC-2998 colon) | TGI (HOP-62 NSCLC) | TGI (HOP-92 NSCLC) | TGI (HS 578T breast) | TGI (KM12 colon) | TGI (MCF7 breast) | TGI (MDA-MB-231 breast) | TGI (NCI-H522 lung) | TGI (OVCAR-3 ovarian) | TGI (OVCAR-8 ovarian) | TGI (SF-295 CNS) | TGI (SF-539 CNS) | TGI (SK-MEL-2 melanoma) | TGI (SK-OV-3 ovarian) | TGI (SN12C renal) | TGI (SW-620 colon) | TGI (UACC-257 melanoma)
1 | COc1ccc2c(c1)CCN1CCCc3ccc(OC)cc3C21 (stereo unspecified) | > 100 µM | > 100 µM | > 100 µM | > 100 µM | > 100 µM | > 100 µM | > 100 µM | > 100 µM | > 100 µM | > 100 µM | > 100 µM | > 100 µM | > 100 µM | > 100 µM | > 100 µM | > 100 µM | > 100 µM | > 100 µM | > 100 µM | > 100 µM
2 | COC(=O)/C(=N\NC(=S)NN)C(C(=O)OC)C(=O)C(=O)Nc1cccc(C(F)(F)F)c1 (stereo unspecified) | > 100 µM | > 100 µM | > 100 µM | > 100 µM | > 100 µM | > 100 µM | > 100 µM | > 100 µM | > 100 µM | > 100 µM | > 100 µM | > 100 µM | > 100 µM | > 100 µM | > 100 µM | > 100 µM | > 100 µM | > 100 µM | > 100 µM | > 100 µM
3 | CCC1c2[nH]c3ccccc3c2C[C@H]2C(=O)N3CCC[C@H]3C(=O)N12 (stereo partly specified) | > 100 µM | > 100 µM | > 100 µM | > 100 µM | > 100 µM | > 100 µM | > 100 µM | > 100 µM | > 100 µM | > 100 µM | > 100 µM | > 100 µM | > 100 µM | > 100 µM |  | > 100 µM | > 100 µM | > 100 µM | > 100 µM | > 100 µM
4 | CC(C)(C)C1(O)C=C(O)C(=O)N1NC(=O)c1ccccc1Nc1ccccc1 (stereo unspecified) | > 100 µM | > 100 µM | > 100 µM | 62.9 µM |  | > 100 µM | > 100 µM | > 100 µM | > 100 µM | > 100 µM | 81.2 µM | 31.9 µM | > 100 µM | > 100 µM | > 100 µM | > 100 µM | > 100 µM | > 100 µM | > 100 µM | 72.2 µM
5 | N#C/C(C(=S)Nc1ccccc1)=C(/N)N1CCCC1 | > 100 µM | > 100 µM | > 100 µM | > 100 µM | > 100 µM | > 100 µM | > 100 µM | > 100 µM | > 100 µM | > 100 µM | > 100 µM | > 100 µM | > 100 µM | > 100 µM | > 100 µM | > 100 µM |  | > 100 µM | > 100 µM | > 100 µM
6 | C=C(C)[C@H]1C[C@@H]2O[C@@](O)(/C(C)=C\C(=O)/C=C(/C)C[C@H]3OC(=O)[C@@]24O[C@H]34)[C@@H]1O | > 100 µM | > 100 µM | > 100 µM | > 100 µM |  | > 100 µM | > 100 µM | > 100 µM | > 100 µM | > 100 µM | > 100 µM | > 100 µM | > 100 µM | > 100 µM | > 100 µM | > 100 µM | > 100 µM | > 100 µM | > 100 µM | > 100 µM
